Experimental data reported in patent US7429557B2, “Replacement solvents having improved properties and methods of using the same” (Mainstream Engineering Corporation, priority 2005, dated 2008).
Like-named read-outs stand apart in the source and are kept apart here.

Tests used:
LD50 = details: in vivo
Source text: Toxicity is yet another factor which must be considered when selecting second-generation replacement solvents. Parameters such as the lethal dose 50 (LD50), lethal concentration 50 (LC50), cardiac sensitization, skin irritation, and mutagenicity (e.g., via the Ames test) can be used as measures. LDn or LCn abbreviation, where n is the percent lethality, is used for the dose of a toxicant lethal to n % of a test population. […] Cardiac sensitization is a measure of the ability of a compound to cause cardiac arrhythmia under stress.
(§1) Skin irritation is also an important consideration for a solvent.

Skin irritation = details: in vivo
Source text: as §1

Ames mutagenicity assay = assay: Ames mutagenicity assay
Source text: as §1

Chinese hamster = assay: In vitro genotoxicity; details: in vitro Chinese hamster oocytes
Source text: as §1

[1] = Coated metal coupon cleaning, gravimetric; details: Krytox, 15 minute immersion, 15 mL
Description: (§2) A sample comprising 25 volume percent (A.) 4-bromo-3-chloro-3,4,4-trifluoro-1-butene and 75 volume percent (B.) 1-chloro-2,2,2-trifluoroethyl difluoromethyl ether was added to several beakers, each containing a metal coupon completely coated with one of the following materials: Mil Spec 83282 hydraulic oil, Mil Spec 7808 engine oil, Krytox fluorocarbon grease and Mil Spec 81322 aviation grease. Two batches were subjected to 15 minute immersion with 15 mL of solvent mixture but one was exposed to ultrasonic vibrations and the other kept static. Afterwards, the coupons were removed and weighed for gravimetric analysis.
as §2, with “50” for “25”, “50” for “75”
(§3) Two batches were subjected to 15 minute immersion with 15 mL of solvent mixture but one was exposed to ultrasonic vibrations and the other kept static. Afterwards, the coupons were removed and weighed for gravimetric analysis.
The compounds (A) 4-bromo-3-chloro-3,4,4-trifluoro-1-butene and (B) 1-chloro-2,2,2-trifluoroethyl difluoromethyl ether, were mixed 50:50 by volume and tested to remove Krytox. The individual components, A and B, remove 17.0% and 98.7%, respectively, of this contaminant after 15 min. with ultrasonic treatment. The mixture removed 99.3% of the same contaminant under the same conditions.

[2] = listed; cited from earlier work
[3] = Coated metal coupon cleaning, gravimetric; details: 15 minute immersion, 15 mL
Description: as §2
as §2, with “50” for “25”, “50” for “75”
as §3

COC(C(F)(F)F)C(F)(F)F [E, methyl 2,2,2-trifluoroethyl-1-(trifluoromethyl)ether]
LD50 (LD50): > 40000 mg/kg | skin irritation (Skin irritation): moderate to non-irritants | Ames mutagenicity assay (Ames mutagenicity assay): negative | genotoxicity (Chinese hamster): not genotoxic

FC(F)OC(F)(F)C(F)Cl (stereo not drawn) [Compound C, 2-chloro-1,1,2-trifluoroethyl difluoromethyl ether]
LD50 (LD50): 13000 mg/kg | skin irritation (Skin irritation): moderate to non-irritants | Ames mutagenicity assay (Ames mutagenicity assay): negative | genotoxicity (Chinese hamster): not genotoxic

FC(F)(Cl)C(F)(Cl)Cl [CFC-113, 1,1,2-trichloro-1,2,2-trifluoroethane]
percent contaminant removed ([1]; Static): 36.2% | percent contaminant removed ([1]; Ultrasonic): 97.7% | skin irritation [2]: mild irritant | percent contaminant removed ([3]; 7808 oil, Static): 100% | percent contaminant removed ([3]; 7808 oil, Ultrasonic): 99.2% | percent contaminant removed ([3]; 81322 grease, Static): 24.1% | percent contaminant removed ([3]; 81322 grease, Ultrasonic): 94.8% | percent contaminant removed ([3]; 83282 oil, Static): 100% | percent contaminant removed ([3]; 83282 oil, Ultrasonic): 100%

C=CC(F)(Cl)C(F)(F)Br (stereo not drawn) [A, 4-bromo-3-chloro-3,4,4-trifluoro-1-butene]
percent contaminant removed ([1]; Ultrasonic): 17.0% | LD50 (LD50): > 40000 mg/kg | skin irritation (Skin irritation): moderate to non-irritants | Ames mutagenicity assay (Ames mutagenicity assay): negative | genotoxicity (Chinese hamster): not genotoxic

FC(F)OC(Cl)C(F)(F)F (stereo not drawn) [Compound B, 1-chloro-2,2,2 trifluoroethyl difluoromethyl ether]
percent contaminant removed ([1]; Ultrasonic): 98.7% | LD50 (LD50): 8100 mg/kg | skin irritation (Skin irritation): moderate to non-irritants | Ames mutagenicity assay (Ames mutagenicity assay): negative | genotoxicity (Chinese hamster): not genotoxic
